Measured values published in ChEMBL document CHEMBL1909046, “DrugMatrix in vitro pharmacology data”.

How the values were obtained:
Cytochrome P450 2C9 = Cytochrome P450 2C9 (Homo sapiens, UniProt P11712); conditions: bti-tn-5b1-4; further: in other assays of this panel Not Active means under 50% inhibition at 10 µM
D(1A) dopamine receptor = D(1A) dopamine receptor (Homo sapiens, UniProt P21728); assay: DRUGMATRIX: Dopamine D1 radioligand binding (ligand: [3H] SCH-23390); format: cell membranes, CHO, Membrane; conditions: cho; Not Active = under 50% inhibition at 10 µM
[1] = target: T1, Alpha-2A adrenergic receptor (Homo sapiens, UniProt P08913); format: cell membranes, Sf9, Membrane; further: in other assays of this panel Not Active means under 50% inhibition at 10 µM
T1 sequence (P08913 whole entry): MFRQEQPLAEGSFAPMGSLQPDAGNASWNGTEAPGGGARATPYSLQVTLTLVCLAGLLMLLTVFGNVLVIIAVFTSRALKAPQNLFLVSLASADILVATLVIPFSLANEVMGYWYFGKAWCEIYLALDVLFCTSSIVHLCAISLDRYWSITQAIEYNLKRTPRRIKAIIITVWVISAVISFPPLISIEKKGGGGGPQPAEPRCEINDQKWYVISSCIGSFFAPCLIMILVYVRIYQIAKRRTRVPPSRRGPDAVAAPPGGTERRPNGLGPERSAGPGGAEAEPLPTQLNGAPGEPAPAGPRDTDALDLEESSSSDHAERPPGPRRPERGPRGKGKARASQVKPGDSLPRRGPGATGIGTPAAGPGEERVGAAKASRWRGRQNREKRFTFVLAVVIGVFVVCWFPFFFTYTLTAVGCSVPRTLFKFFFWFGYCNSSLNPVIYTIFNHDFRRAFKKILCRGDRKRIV

[2] = target: Kappa-type opioid receptor (Homo sapiens, UniProt P41145); assay: DRUGMATRIX: Opiate kappa (OP2, KOP) radioligand binding (ligand: [3H] Diprenorphine); format: cell membranes, HEK293, Membrane; conditions: Not Active = under 50% inhibition at 10 µM
[3] = target: T2, Alpha-1B adrenergic receptor (Rattus norvegicus, UniProt P15823); assay: DRUGMATRIX: Alpha-1B adrenergic receptor radioligand binding (ligand: prazosin); format: cell membranes, Wistar, Liver, Membrane; conditions: Not Active = under 50% inhibition at 10 µM
T2 sequence (P15823 whole entry): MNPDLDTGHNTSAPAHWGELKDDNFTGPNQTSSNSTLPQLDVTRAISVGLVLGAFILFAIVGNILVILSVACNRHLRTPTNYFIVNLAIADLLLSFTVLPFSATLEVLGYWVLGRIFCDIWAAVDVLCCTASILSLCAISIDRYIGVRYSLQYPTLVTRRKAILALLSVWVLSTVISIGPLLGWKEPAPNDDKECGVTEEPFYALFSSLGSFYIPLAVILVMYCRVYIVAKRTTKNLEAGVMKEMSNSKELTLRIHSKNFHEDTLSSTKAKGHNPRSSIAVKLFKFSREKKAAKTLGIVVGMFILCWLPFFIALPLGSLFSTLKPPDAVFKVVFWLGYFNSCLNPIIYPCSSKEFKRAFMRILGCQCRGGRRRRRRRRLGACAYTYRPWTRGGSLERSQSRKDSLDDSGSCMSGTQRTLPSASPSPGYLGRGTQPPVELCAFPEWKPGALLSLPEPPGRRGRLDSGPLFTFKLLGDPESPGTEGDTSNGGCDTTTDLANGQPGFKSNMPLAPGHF

Cytochrome P450 2D6 = Cytochrome P450 2D6 (Homo sapiens, UniProt P10635); conditions: bti-tn-5b1-4; further: in other assays of this panel Not Active means under 50% inhibition at 10 µM
Glucocorticoid receptor = target: T3, Glucocorticoid receptor (Homo sapiens, UniProt P04150); conditions: hela s3; further: in other assays of this panel Not Active means under 50% inhibition at 10 µM
T3 sequence (P04150 whole entry): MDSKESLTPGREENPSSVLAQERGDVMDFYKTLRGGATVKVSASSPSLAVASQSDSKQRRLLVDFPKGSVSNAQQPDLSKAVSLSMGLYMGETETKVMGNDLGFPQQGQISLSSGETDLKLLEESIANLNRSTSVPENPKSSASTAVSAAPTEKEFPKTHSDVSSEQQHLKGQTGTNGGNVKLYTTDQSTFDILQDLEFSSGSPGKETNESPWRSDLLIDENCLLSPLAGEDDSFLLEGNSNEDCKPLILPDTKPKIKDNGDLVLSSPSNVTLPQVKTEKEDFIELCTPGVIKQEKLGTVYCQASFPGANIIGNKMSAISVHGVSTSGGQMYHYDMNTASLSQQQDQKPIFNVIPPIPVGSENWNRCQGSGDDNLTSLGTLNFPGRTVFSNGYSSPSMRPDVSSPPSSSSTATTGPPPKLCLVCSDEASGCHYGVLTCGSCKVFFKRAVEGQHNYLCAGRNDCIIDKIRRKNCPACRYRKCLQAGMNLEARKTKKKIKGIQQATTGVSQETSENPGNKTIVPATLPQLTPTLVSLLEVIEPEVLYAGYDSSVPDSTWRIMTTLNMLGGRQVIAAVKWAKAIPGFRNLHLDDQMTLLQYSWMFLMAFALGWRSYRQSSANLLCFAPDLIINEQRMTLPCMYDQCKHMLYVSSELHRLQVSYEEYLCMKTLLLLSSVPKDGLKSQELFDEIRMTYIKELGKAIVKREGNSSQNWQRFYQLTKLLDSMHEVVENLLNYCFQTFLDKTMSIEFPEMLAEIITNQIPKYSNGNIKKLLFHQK

Cytochrome P450 2C9, sequence (P11712 whole entry): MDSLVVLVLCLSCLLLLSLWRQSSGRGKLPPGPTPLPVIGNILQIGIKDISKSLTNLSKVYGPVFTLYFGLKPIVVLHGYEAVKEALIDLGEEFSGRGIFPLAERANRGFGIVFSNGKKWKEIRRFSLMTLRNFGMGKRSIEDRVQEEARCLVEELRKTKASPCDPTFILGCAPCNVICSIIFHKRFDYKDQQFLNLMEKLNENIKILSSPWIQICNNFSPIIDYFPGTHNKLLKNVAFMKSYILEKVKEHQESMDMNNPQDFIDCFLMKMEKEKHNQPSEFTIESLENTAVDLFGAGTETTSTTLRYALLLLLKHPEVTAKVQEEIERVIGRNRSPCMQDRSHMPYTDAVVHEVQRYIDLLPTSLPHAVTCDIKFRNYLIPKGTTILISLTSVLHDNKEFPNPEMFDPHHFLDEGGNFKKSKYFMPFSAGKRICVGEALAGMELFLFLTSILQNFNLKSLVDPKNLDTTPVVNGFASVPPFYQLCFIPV
Cytochrome P450 2D6, sequence (P10635 whole entry): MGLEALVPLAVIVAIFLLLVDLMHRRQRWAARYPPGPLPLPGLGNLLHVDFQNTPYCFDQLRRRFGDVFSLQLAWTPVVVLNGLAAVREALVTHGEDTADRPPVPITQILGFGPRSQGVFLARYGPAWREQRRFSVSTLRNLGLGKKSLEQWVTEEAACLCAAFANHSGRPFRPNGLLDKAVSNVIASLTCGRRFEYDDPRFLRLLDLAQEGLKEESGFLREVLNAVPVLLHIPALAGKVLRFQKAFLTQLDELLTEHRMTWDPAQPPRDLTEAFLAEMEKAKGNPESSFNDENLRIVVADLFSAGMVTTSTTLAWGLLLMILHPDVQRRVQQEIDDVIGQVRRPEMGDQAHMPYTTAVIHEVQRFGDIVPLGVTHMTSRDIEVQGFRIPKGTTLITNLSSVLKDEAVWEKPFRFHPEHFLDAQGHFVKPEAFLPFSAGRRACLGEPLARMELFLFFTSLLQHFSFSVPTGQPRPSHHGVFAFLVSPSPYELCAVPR
D(1A) dopamine receptor, sequence (P21728 whole entry): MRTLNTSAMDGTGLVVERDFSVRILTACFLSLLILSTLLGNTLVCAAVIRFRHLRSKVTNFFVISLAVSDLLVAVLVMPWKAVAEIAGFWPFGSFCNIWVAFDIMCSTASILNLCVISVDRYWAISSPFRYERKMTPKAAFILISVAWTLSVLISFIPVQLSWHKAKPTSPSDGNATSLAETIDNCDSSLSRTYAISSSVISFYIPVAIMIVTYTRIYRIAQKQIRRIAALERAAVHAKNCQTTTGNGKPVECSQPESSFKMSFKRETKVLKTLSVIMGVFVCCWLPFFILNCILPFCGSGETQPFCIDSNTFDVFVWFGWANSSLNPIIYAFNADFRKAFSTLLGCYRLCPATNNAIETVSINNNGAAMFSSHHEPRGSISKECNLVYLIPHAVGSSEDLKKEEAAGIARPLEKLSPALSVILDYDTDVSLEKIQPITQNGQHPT
Kappa-type opioid receptor, sequence (P41145 whole entry): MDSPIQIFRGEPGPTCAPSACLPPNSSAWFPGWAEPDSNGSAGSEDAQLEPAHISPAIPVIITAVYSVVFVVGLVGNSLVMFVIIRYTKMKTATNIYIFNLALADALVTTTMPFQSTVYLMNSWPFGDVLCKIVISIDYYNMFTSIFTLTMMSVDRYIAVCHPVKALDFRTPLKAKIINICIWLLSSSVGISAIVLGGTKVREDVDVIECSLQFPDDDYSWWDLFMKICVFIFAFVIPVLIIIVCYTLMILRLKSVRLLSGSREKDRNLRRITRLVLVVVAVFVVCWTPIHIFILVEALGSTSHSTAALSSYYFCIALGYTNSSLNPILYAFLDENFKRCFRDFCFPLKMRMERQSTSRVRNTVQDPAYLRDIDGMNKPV

Row | Molecule | IC50 (Cytochrome P450 2C9) | Ki (Cytochrome P450 2C9) | IC50 (D(1A) dopamine receptor) | IC50 ([1]; sf9) | IC50 ([2]; hek293) | IC50 [3] | IC50 (Cytochrome P450 2D6) | Ki (Cytochrome P450 2D6) | IC50 (Glucocorticoid receptor) | Ki [2] | IC50 ([2]; read-out: IC50) | IC50 ([1]; read-out: IC50) | Ki ([1]; read-out: Ki) | Ki (D(1A) dopamine receptor) | Ki ([1]; sf9) | Ki [3] | Ki (Glucocorticoid receptor) | IC50 ([3]; read-out: IC50) | Ki ([3]; read-out: Ki)
1 | C#C[C@]1(O)CC[C@H]2[C@@H]3[C@H](C)CC4=C(CCC(=O)C4)[C@H]3CC[C@@]21C [TIBOLONE] | Not Active | Not Active | Not Active | Not Active | Not Active | Not Active | Not Active | Not Active |  |  |  |  |  |  |  |  |  |  | 
2 | Oc1ccc(/C=C/c2cc(O)cc(O)c2)cc1 [RESVERATROL] |  |  | Not Active | Not Active |  | Not Active | Not Active | Not Active |  |  |  |  |  |  |  |  |  |  | 
3 | C[N+]1(C)[C@@H]2C[C@@H](OC(=O)[C@H](CO)c3ccccc3)C[C@H]1[C@@H]1O[C@@H]12.[Br-] [METHSCOPOLAMINE BROMIDE] |  |  | Not Active | Not Active |  | Not Active | Not Active | Not Active | Not Active |  |  |  |  |  |  |  |  |  | 
4 | OC[C@@H](O)[C@@H](O)[C@H](O)[C@H](O)CO [MANNITOL] | Not Active | Not Active | Not Active | Not Active |  | Not Active | Not Active | Not Active |  |  |  |  |  |  |  |  |  |  | 
5 | CCN(CC)C(=S)SSC(=S)N(CC)CC | Not Active | Not Active |  |  |  | Not Active | Not Active | Not Active | Not Active | 2440 nM | 6100 nM |  |  |  |  |  |  |  | 
6 | O=[As][O-].[Na+] [SODIUM ARSENITE] | Not Active | Not Active | Not Active | Not Active |  | Not Active | Not Active | Not Active | Not Active |  |  |  |  |  |  |  |  |  | 
7 | CCN(CC)N=O [N-NITROSODIETHYLAMINE] | Not Active | Not Active | Not Active | Not Active |  | Not Active | Not Active | Not Active |  |  |  |  |  |  |  |  |  |  | 
8 | Nc1nc(N)c2nc(-c3ccccc3)c(N)nc2n1 |  |  | Not Active | Not Active | Not Active | Not Active |  |  | Not Active |  |  |  |  |  |  |  |  |  | 
9 | CCN(CC)CCNC(=O)c1cc(Cl)c(N)cc1OC [METOCLOPRAMIDE] | Not Active | Not Active | Not Active |  | Not Active | Not Active |  |  |  |  |  | 2720 nM | 1020 nM |  |  |  |  |  | 
10 | Cc1cc2c(s1)Nc1ccccc1N=C2N1CCN(C)CC1 [OLANZAPINE] | Not Active | Not Active |  |  | Not Active |  | Not Active | Not Active | Not Active |  |  |  |  |  |  |  |  |  | 
11 | Cc1nnc(NS(=O)(=O)c2ccc(N)cc2)s1 [SULFAMETHIZOLE] | Not Active | Not Active | Not Active | Not Active | Not Active | Not Active | Not Active | Not Active |  |  |  |  |  |  |  |  |  |  | 
12 | CC#C[C@]1(O)CC[C@H]2[C@@H]3CCC4=CC(=O)CCC4=C3[C@@H](c3ccc(N(C)C)cc3)C[C@@]21C [MIFEPRISTONE] | Not Active | Not Active | Not Active | Not Active |  | Not Active | Not Active | Not Active |  | 8040 nM | 20100 nM |  |  |  |  |  |  |  | 
13 | CO[C@@H]1[C@@H](OC)[C@H](C)[C@@](O)(CC(=O)O)O[C@H]1[C@H](C)[C@H]1O[C@@]2(CC[C@@](C)([C@H]3CC[C@@](C)([C@@H]4O[C@@H]([C@H]5O[C@](C)(O)[C@H](C)C[C@@H]5C)C[C@@H]4O[C@@H]4C[C@H](OC)[C@@H](OC)[C@H](C)O4)O3)O2)C[C@H](O)[C@H]1C.N [MADURAMICIN] | Not Active | Not Active |  | Not Active | Not Active |  | Not Active | Not Active | Not Active |  |  |  |  |  |  |  |  |  | 
14 | CNCCCC12CCC(c3ccccc31)c1ccccc12 [MAPROTILINE] |  |  |  |  | Not Active |  |  |  | Not Active |  |  |  |  |  |  |  |  |  | 
15 | LEAD(IV) ACETATE | Not Active | Not Active | Not Active | Not Active |  | Not Active | Not Active | Not Active | Not Active |  |  |  |  | Not Active | Not Active | Not Active | Not Active |  | 
16 | O=C(c1ccccc1)c1ccc2n1CCC2C(=O)O (centres undefined) [KETOROLAC] | Not Active | Not Active | Not Active | Not Active | Not Active | Not Active | Not Active | Not Active |  |  |  |  |  |  |  |  |  |  | 
17 | CC(Cl)(Cl)Cl [TRICHLOROETHANE] | Not Active | Not Active | Not Active | Not Active |  | Not Active | Not Active | Not Active |  |  |  |  |  |  |  |  |  |  | 
18 | CN1C[C@H](CNC(=O)OCc2ccccc2)C[C@@H]2c3cccc4c3c(cn4C)C[C@H]21 [METERGOLINE] | Not Active | Not Active |  |  | Not Active |  |  |  | Not Active |  |  |  |  |  |  |  |  | 262 nM | 145 nM
19 | Cc1[nH]c(=O)c(C#N)cc1-c1ccncc1 [MILRINONE] | Not Active | Not Active | Not Active | Not Active | Not Active | Not Active | Not Active | Not Active |  |  |  |  |  |  |  |  |  |  | 
20 | O=C1CC[C@@]2(O)[C@H]3Cc4ccc(O)c5c4[C@@]2(CCN3CC2CC2)[C@H]1O5 [NALTREXONE] | Not Active | Not Active | Not Active | Not Active |  | Not Active |  |  | Not Active |  |  |  |  |  |  |  |  |  | 
21 | CN(C)CCC=C1c2ccccc2COc2ccccc21 [DOXEPIN] | Not Active | Not Active |  |  | Not Active |  | Not Active | Not Active | Not Active |  |  |  |  |  |  |  |  |  | 
22 | CC(=O)O[C@]1(C(C)=O)CC[C@H]2[C@@H]3C[C@H](C)C4=CC(=O)CC[C@]4(C)[C@H]3CC[C@@]21C [MEDROXYPROGESTERONE ACETATE] | Not Active | Not Active | Not Active | Not Active | Not Active | Not Active | Not Active | Not Active |  |  |  |  |  |  |  |  |  |  | 
23 | Cc1cn([C@H]2C=C[C@@H](CO)O2)c(=O)[nH]c1=O [STAVUDINE] | Not Active | Not Active | Not Active | Not Active | Not Active | Not Active | Not Active | Not Active |  |  |  |  |  |  |  |  |  |  | 
24 | CC(O)C(=O)O (centres undefined) [LACTIC ACID] | Not Active | Not Active | Not Active | Not Active | Not Active | Not Active | Not Active | Not Active |  |  |  |  |  |  |  |  |  |  | 
25 | C1CCN2C[C@@H]3C[C@@H](CN4CCCC[C@@H]34)[C@H]2C1 [SPARTEINE] |  |  | Not Active | Not Active |  | Not Active |  |  | Not Active |  |  |  |  |  |  |  |  |  | 
